Source: PubChem BioAssay (NCI)
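Five concentrations, 48 hours, 96-well plates. The concentration for full growth arrest is given as TGI.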

What was measured:
Assay in all cases: NCI anticancer screen, dose series, 48 h
[1] = test system: MDA-MB-435
[2] = test system: SF-268 CNS
[3] = test system: MCF7 breast
[4] = test system: NCI/ADR-RES ovarian
[5] = test system: BT-549 breast
[6] = test system: EKVX NSCLC
[7] = test system: RPMI-8226 leukemia
[8] = test system: HCT-15 colon
[9] = test system: RXF 393 renal
[10] = test system: CAKI-1 renal
[11] = test system: SK-OV-3 ovarian
[12] = test system: COLO 205 colon
[13] = test system: UACC-62 melanoma
[14] = test system: OVCAR-5 ovarian
[15] = test system: NCI-H226 lung
[16] = test system: SNB-19 CNS
[17] = test system: CCRF-CEM leukemia
[18] = test system: SF-539 CNS
[19] = test system: UO-31 renal
[20] = test system: MDA-N
[21] = test system: T-47D breast
[22] = test system: SK-MEL-28 melanoma
[23] = test system: NCI-H522 lung
[24] = test system: MOLT-4 leukemia
[25] = test system: IGROV1 ovarian
[26] = test system: SK-MEL-2 melanoma
[27] = test system: HT29 colon
[28] = test system: MDA-MB-231 breast
[29] = test system: A549 NSCLC
[30] = test system: KM12 colon
[31] = test system: OVCAR-8 ovarian
[32] = test system: HL-60(TB) leukemia
[33] = test system: UACC-257 melanoma
[34] = test system: TK-10 renal
[35] = test system: OVCAR-3 ovarian
[36] = test system: SNB-75 CNS
[37] = test system: HOP-92 NSCLC
[38] = test system: MALME-3M melanoma
[39] = test system: DU-145 prostate
[40] = test system: NCI-H460 lung
[41] = test system: SW-620 colon
[42] = test system: SF-295 CNS
[43] = test system: U251 CNS
[44] = test system: HOP-62 NSCLC
[45] = test system: 786-0 renal
[46] = test system: NCI-H23 lung
[47] = test system: M14 melanoma
[48] = test system: SN12C renal
[49] = test system: HCT-116 colon
[50] = test system: HS 578T breast
[51] = test system: A498 renal
[52] = test system: PC-3 prostate
[53] = test system: LOX IMVI melanoma
[54] = test system: SR leukemia
[55] = test system: OVCAR-4 ovarian
[56] = test system: K-562 leukemia
[57] = test system: ACHN renal
[58] = test system: HCC-2998 colon
[59] = test system: SK-MEL-5 melanoma

Measured: TGI

Cc1ccc(S(=O)(=O)/N=C(\N)N(C)N=O)cc1
not listed: [57] | [58] | [59]
> 100 µM: all other assays above

CCN1C(NN)=NS(=O)(=O)c2ccccc21
not listed: [7] | [36] | [38]
> 100 µM: all other assays above

O=C1C(c2c(O)[nH]c3ccc(S(=O)(=O)O)cc23)=Nc2ccc(Br)cc21
not listed: [18]
> 100 µM: all other assays above
